Measured values as given in patent publication US20030129629A1, “Methods and compositions for the identification, assessment, prevention, and therapy of human cancers” (Millennium Pharmaceuticals, Inc., priority 2000, published 2003).
Where two headings read alike, the source gives them in different places.

Key:
[1] = test system: 60 cancer cell lines (NCI 60 cancer cell line series); conditions: cited from earlier work
[2] = test system: 60 cancer cell lines (NCI 60 cancer cell line series); test: NCI-DTP in vitro cancer screen, sulforhodamine B (SRB) growth inhibition, 48 hour exposure; type: cell-based, human
How it was run: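 NCI-DTP panel of 60 cancer cell lines plated day 0 at line-specific densities, exposed from day 1 to compound at 5 ten-fold-spaced doses in duplicate wells. After 48 h, cell mass stained with sulforhodamine B; −log GI50 derived from dose–response curves, averaged, and classed Low, Medium or High sensitivity.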

CC(=O)O[C@H]1C(=O)[C@@]2(C)[C@H]([C@H](OC(=O)c3ccccc3)[C@]3(O)C[C@H](OC(=O)[C@H](O)[C@@H](NC(=O)c4ccccc4)c4ccccc4)C(C)=C1C3(C)C)[C@]1(OC(C)=O)CO[C@@H]1C[C@@H]2O [TAXOL, paclitaxel, reference compound]
−Log (GI50) ([1]; Breast MCF7/ADRr CL5002): 5.5 | −Log (GI50) ([1]; Colon COLO-250 CL4010): 8.0 | −Log (GI50) ([1]; Melanoma SK-MEL-5 CL10007): 6.3 | −Log (GI50) ([1]; Melanoma UACC-62 CL10020): 8.1 | −Log (GI50) ([1]; Melanoma UACC-257 CL10021): 7.1 | −Log (GI50) ([1]; NSCLC A549/ATCC CL1004): 8.0 | −Log (GI50) ([1]; NSCLC EKVX CL1008): 4.8 | −Log (GI50) ([1]; NSCLC HOP-62 CL1026): 7.4 | −Log (GI50) ([1]; NSCLC HOP-92 CL1029): 5.7 | −Log (GI50) ([1]; Ovarian OVCAR-5 CL6003): 6.8 | classification of cell line as Low(1), Medium(2), High(3) sensitivity to compound ([2]; Breast BT-549 CL5013): 2 | classification of cell line as Low(1), Medium(2), High(3) sensitivity to compound ([2]; Breast MCF7/ADRr CL5002): 1 | classification of cell line as Low(1), Medium(2), High(3) sensitivity to compound ([2]; Breast MDA-MB-231 CL5005): 2 | classification of cell line as Low(1), Medium(2), High(3) sensitivity to compound ([2]; Breast MDA-MB-435 CL5011): 3 | classification of cell line as Low(1), Medium(2), High(3) sensitivity to compound ([2]; Breast MDA-N CL5012): 3 | classification of cell line as Low(1), Medium(2), High(3) sensitivity to compound ([2]; CNS SF-268 CL12014): 2 | classification of cell line as Low(1), Medium(2), High(3) sensitivity to compound ([2]; CNS SF-295 CL12015): 2 | classification of cell line as Low(1), Medium(2), High(3) sensitivity to compound ([2]; CNS SF-539 CL12016): 2 | classification of cell line as Low(1), Medium(2), High(3) sensitivity to compound ([2]; CNS SNB-19 CL12002): 2 | classification of cell line as Low(1), Medium(2), High(3) sensitivity to compound ([2]; CNS U251(I) CL12009): 2 | classification of cell line as Low(1), Medium(2), High(3) sensitivity to compound ([2]; Colon HCT-15 CL4015): 1 | classification of cell line as Low(1), Medium(2), High(3) sensitivity to compound ([2]; Colon HCT-116 CL4003): 3 | classification of cell line as Low(1), Medium(2), High(3) sensitivity to compound ([2]; Colon HT29(I) CL4001): 3 | classification of cell line as Low(1), Medium(2), High(3) sensitivity to compound ([2]; Colon KM12 CL4017): 2 | classification of cell line as Low(1), Medium(2), High(3) sensitivity to compound ([2]; Leukemia MOLT-4 CL7006): 2 | classification of cell line as Low(1), Medium(2), High(3) sensitivity to compound ([2]; Leukemia RPMI-8226(I) CL7010): 3 | classification of cell line as Low(1), Medium(2), High(3) sensitivity to compound ([2]; Melanoma M14 CL10014): 2 | sensitivity classification Low(1)/Medium(2)/High(3) ([2]; NSCLC NCI-H23(I) CL1001): 2 | sensitivity classification Low(1)/Medium(2)/High(3) ([2]; NSCLC NCI-H332M CL1017): 2 | sensitivity classification Low(1)/Medium(2)/High(3) ([2]; Ovarian IGROV1 CL6010): 2 | sensitivity classification Low(1)/Medium(2)/High(3) ([2]; Ovarian OVCAR-4 CL6002): 1 | sensitivity classification Low(1)/Medium(2)/High(3) ([2]; Ovarian OVCAR-8 CL6005): 2 | sensitivity classification Low(1)/Medium(2)/High(3) ([2]; Ovarian SK-OV-3 CL6011): 2 | sensitivity classification Low(1)/Medium(2)/High(3) ([2]; Prostate DU-145 CL11003): 2 | sensitivity classification Low(1)/Medium(2)/High(3) ([2]; Prostate PC-3(I) CL11001): 2 | sensitivity classification Low(1)/Medium(2)/High(3) ([2]; Renal 786-0 CL9018): 2 | sensitivity classification Low(1)/Medium(2)/High(3) ([2]; Renal ACHN CL9023): 1 | sensitivity classification Low(1)/Medium(2)/High(3) ([2]; Renal CAKI-1 CL9015): 1 | sensitivity classification Low(1)/Medium(2)/High(3) ([2]; Renal RXF-393 CL9016): 2 | sensitivity classification Low(1)/Medium(2)/High(3) ([2]; Renal SN12C CL9008): 2 | sensitivity classification Low(1)/Medium(2)/High(3) ([2]; Renal UO-31 CL9004): 1

COc1cc([C@@H]2c3cc4c(cc3[C@@H](O[C@@H]3O[C@@H]5CO[C@@H](c6cccs6)O[C@H]5[C@H](O)[C@H]3O)[C@H]3COC(=O)[C@H]23)OCO4)cc(OC)c1O [Teniposide]
−Log (GI50) ([1]; Melanoma SK-MEL-2 CL10005): 6.0 | −Log (GI50) ([1]; Melanoma SK-MEL-28 CL10008): 5.8 | −Log (GI50) ([1]; NSCLC NCI-H226 CL1013): 6.5 | classification of cell line as Low(1), Medium(2), High(3) sensitivity to compound ([2]; Breast BT-549 CL5013): 2 | classification of cell line as Low(1), Medium(2), High(3) sensitivity to compound ([2]; Breast HS-578T CL5006): 2 | classification of cell line as Low(1), Medium(2), High(3) sensitivity to compound ([2]; Breast MCF7(I) CL5001): 3 | classification of cell line as Low(1), Medium(2), High(3) sensitivity to compound ([2]; Breast MCF7/ADRr CL5002): 1 | classification of cell line as Low(1), Medium(2), High(3) sensitivity to compound ([2]; Breast MDA-MB-231 CL5005): 2 | classification of cell line as Low(1), Medium(2), High(3) sensitivity to compound ([2]; Breast MDA-MB-435 CL5011): 2 | classification of cell line as Low(1), Medium(2), High(3) sensitivity to compound ([2]; Breast MDA-N CL5012): 2 | classification of cell line as Low(1), Medium(2), High(3) sensitivity to compound ([2]; Breast T-47D CL5014): 2 | classification of cell line as Low(1), Medium(2), High(3) sensitivity to compound ([2]; CNS SF-268 CL12014): 2 | classification of cell line as Low(1), Medium(2), High(3) sensitivity to compound ([2]; CNS SF-295 CL12015): 2 | classification of cell line as Low(1), Medium(2), High(3) sensitivity to compound ([2]; CNS SF-539 CL12016): 2 | classification of cell line as Low(1), Medium(2), High(3) sensitivity to compound ([2]; CNS SNB-19 CL12002): 2 | classification of cell line as Low(1), Medium(2), High(3) sensitivity to compound ([2]; CNS SNB-75(I) CL12005): 2 | classification of cell line as Low(1), Medium(2), High(3) sensitivity to compound ([2]; CNS U251(I) CL12009): 2 | classification of cell line as Low(1), Medium(2), High(3) sensitivity to compound ([2]; Colon COLO-250 CL4010): 2 | classification of cell line as Low(1), Medium(2), High(3) sensitivity to compound ([2]; Colon HCC-2998 CL4002): 2 | classification of cell line as Low(1), Medium(2), High(3) sensitivity to compound ([2]; Colon HCT-15 CL4015): 2 | classification of cell line as Low(1), Medium(2), High(3) sensitivity to compound ([2]; Colon HCT-116 CL4003): 2 | classification of cell line as Low(1), Medium(2), High(3) sensitivity to compound ([2]; Colon HT29(I) CL4001): 2 | classification of cell line as Low(1), Medium(2), High(3) sensitivity to compound ([2]; Colon KM12 CL4017): 2 | classification of cell line as Low(1), Medium(2), High(3) sensitivity to compound ([2]; Colon SW-620 CL4009): 2 | classification of cell line as Low(1), Medium(2), High(3) sensitivity to compound ([2]; Leukemia CCRF-CEM(I) CL7003): 3 | classification of cell line as Low(1), Medium(2), High(3) sensitivity to compound ([2]; Leukemia HL-60(I) CL7008): 3 | classification of cell line as Low(1), Medium(2), High(3) sensitivity to compound ([2]; Leukemia K562(I) CL7005): 2 | classification of cell line as Low(1), Medium(2), High(3) sensitivity to compound ([2]; Leukemia MOLT-4 CL7006): 3 | classification of cell line as Low(1), Medium(2), High(3) sensitivity to compound ([2]; Leukemia RPMI-8226(I) CL7010): 2 | classification of cell line as Low(1), Medium(2), High(3) sensitivity to compound ([2]; Leukemia SR CL7019): 3 | classification of cell line as Low(1), Medium(2), High(3) sensitivity to compound ([2]; Melanoma LOX IMVI CL10001): 2 | classification of cell line as Low(1), Medium(2), High(3) sensitivity to compound ([2]; Melanoma M14 CL10014): 2 | classification of cell line as Low(1), Medium(2), High(3) sensitivity to compound ([2]; Melanoma MALME-3M CL10002): 2 | classification of cell line as Low(1), Medium(2), High(3) sensitivity to compound ([2]; Melanoma SK-MEL-2 CL10005): 2 | classification of cell line as Low(1), Medium(2), High(3) sensitivity to compound ([2]; Melanoma SK-MEL-28 CL10008): 2 | sensitivity classification Low(1)/Medium(2)/High(3) ([2]; NSCLC NCI-H23(I) CL1001): 2 | sensitivity classification Low(1)/Medium(2)/High(3) ([2]; NSCLC NCI-H332M CL1017): 1 | sensitivity classification Low(1)/Medium(2)/High(3) ([2]; NSCLC NCI-H460 CL1021): 3 | sensitivity classification Low(1)/Medium(2)/High(3) ([2]; NSCLC NCI-H522 CL1003): 2 | sensitivity classification Low(1)/Medium(2)/High(3) ([2]; Ovarian IGROV1 CL6010): 2 | sensitivity classification Low(1)/Medium(2)/High(3) ([2]; Ovarian OVCAR-3 CL6001): 2 | sensitivity classification Low(1)/Medium(2)/High(3) ([2]; Ovarian OVCAR-4 CL6002): 1 | sensitivity classification Low(1)/Medium(2)/High(3) ([2]; Ovarian OVCAR-5 CL6003): 2 | sensitivity classification Low(1)/Medium(2)/High(3) ([2]; Ovarian OVCAR-8 CL6005): 2 | sensitivity classification Low(1)/Medium(2)/High(3) ([2]; Ovarian SK-OV-3 CL6011): 2 | sensitivity classification Low(1)/Medium(2)/High(3) ([2]; Prostate DU-145 CL11003): 2 | sensitivity classification Low(1)/Medium(2)/High(3) ([2]; Prostate PC-3(I) CL11001): 2 | sensitivity classification Low(1)/Medium(2)/High(3) ([2]; Renal 786-0 CL9018): 2 | sensitivity classification Low(1)/Medium(2)/High(3) ([2]; Renal A498 CL9013): 2 | sensitivity classification Low(1)/Medium(2)/High(3) ([2]; Renal ACHN CL9023): 2 | sensitivity classification Low(1)/Medium(2)/High(3) ([2]; Renal CAKI-1 CL9015): 3 | sensitivity classification Low(1)/Medium(2)/High(3) ([2]; Renal RXF-393 CL9016): 2 | sensitivity classification Low(1)/Medium(2)/High(3) ([2]; Renal SN12C CL9008): 2 | sensitivity classification Low(1)/Medium(2)/High(3) ([2]; Renal TK10 CL9024): 2 | sensitivity classification Low(1)/Medium(2)/High(3) ([2]; Renal UO-31 CL9004): 1
